From patent US9212359B2, “Systems for induction of gene expression and protein depletion in yeast” (priority 2011, dated 2015)

How the values were obtained:
Assay type in all cases: cell-based, S. cerevisiae
DBY12021 [1] = test: Growth curves in YPD liquid with β-estradiol
Experimental: 100 μL of cells+media were grown on flat-bottom 96-well plates (Costar #3631). A600 was measured every 15 minutes in a Synergy HT (Biotek; Vermont) microplate reader. Cells were grown at 30° C. with medium shaking. Growth rates were computed with spline-fits using the grofit R package (KAHM et al. 2010).

PGAL1-CBF1 = test: GEV-mediated induction of PGAL1-CBF1 transcript, microarray (DBY12040); conditions: by 5 minutes following addition of β-estradiol
Experimental: (§1) For induction experiments, yeast were cultured in 500 mL chemostats (Sixfors; Bottmingen, Switzerland) under phosphate-limitation (20 mg/L potassium phosphate) and pulsed with 1 μM β-estradiol (Tocris Biosciences; Missouri). For the MET4 induction experiment, phosphate-limited media was supplemented with 200 mg/L methionine. Culture volume was maintained at 300 mL. 12-18 hours of batch phase growth prior to pump turn-on was initiated from a 1/60 dilution of cells grown overnight in the same medium. Cultures were grown at 30° C., stirred at 400 RPM, and aerated at 5 L/min with filtered humidified air.
RNA from cells was extracted, labeled, and hybridized to Agilent expression microarrays as described by (Brauer et al., 2008) with slight modifications. Briefly, RNA was extracted from frozen cells with a standard acid-phenol method and then cleaned with RNeasy (Qiagen). Cleaned mRNA was then converted to cDNA and subsequently converted to labeled cRNA with the Agilent Quick-Amp Labeling Kit (Part No. 5190-0424). Microarray hybridizations were performed for 17 hours at 65° C. and rotated on a rotisserie at 20 RPM. Microarrays were washed and then scanned with Agilent Feature Extractor Software version 9.5. […]
For time series experiments, 5 mL of cells were taken per culture per time point. […] Enrichment for gene ontology (GO) terms was determined using GO-term finder (Boyle et al., 2004).

DBY12021 [2] = test: Genome-wide expression after β-estradiol pulse in phosphate-limited chemostat, microarray (DBY12021)
Experimental: as §1
RNA from cells was extracted, labeled, and hybridized to Agilent expression microarrays as described by (Brauer et al., 2008) with slight modifications. Briefly, RNA was extracted from frozen cells with a standard acid-phenol method and then cleaned with RNeasy (Qiagen). Cleaned mRNA was then converted to cDNA and subsequently converted to labeled cRNA with the Agilent Quick-Amp Labeling Kit (Part No. 5190-0424). Microarray hybridizations were performed for 17 hours at 65° C. and rotated on a rotisserie at 20 RPM. Microarrays were washed and then scanned with Agilent Feature Extractor Software version 9.5. Flagged features marked as unreliable were marked N/A. Raw green- and red-channel intensities were floored to a value of 350 (i.e., intensities below 350 were set equal to 350). If the numerator (red-channel, sample RNA) for a given measurement was floored, the denominator (green-channel, reference RNA) for that measurement was set to the average green channel intensity for that gene. The purpose of this smoothing process is to make genes with negligible red-channel signal intensity less sensitive to small fluctuations in the reference intensity. After flooring of the data, the log 2 ratios were computed.
For time series experiments, 5 mL of cells were taken per culture per time point. Reference RNA was taken from DBY12001 grown in a phosphate-limited chemostat at a dilution rate of 0.18 h^−1. Enrichment for gene ontology (GO) terms was determined using GO-term finder (Boyle et al., 2004).

GEV-GFP = GEV-GFP nuclear localization after β-estradiol pulse, single-cell microscopy (DBY11415)
Experimental: Fluorescence was measured with an epifluorescence Nikon Eclipse-TI inverted microscope using a Nikon 40×/0.95NA DIC Plan Apo objective. The microscope is equipped with a PerfectFocus system (Nikon) for maintaining the correct focal plane, a Clara CCD Camera (Andor DR328G) for recording fluorescence emission, and a TI-S-ER motorized stage with encoders to ensure near perfect return to marked stage positions (Nikon MEC56100). GEV-GFP emission was visualized at 525 nm (50-nm bandwidth) upon excitation at 470 nm (40-nm bandwidth) (Chroma #49002_Nikon ETGFP filter cube). […]
Overnight cultures of DBY11415 (MATa/MATα HTB2-mCherry-caURA3/HTB2 his3/HIS3, (gal1+PGAL10):: loxP/GAL1, gal4::LEU2/GAL4, HAP1+/hap1−, leu2Δ0::PACT1-GEV-GFP-KanMX/LEU2) were grown in LFM overnight to saturation. […] The Klett was monitored, and at Klett 40 cells were loaded into 96-well glass-bottomed optical plates for microscopy (Nunc #265300). […]
Image processing was performed by preprocessing the images in ImageJ and then using a custom written Matlab script to extract the intensities in the nuclei relative to the cytoplasm. Briefly, the image processing was done as follows: Fluorescence images were background subtracted using the rolling ball background subtraction command in ImageJ using a ball radius of 50 pixels. […]
These preprocessed images were then analyzed using a custom-written Matlab script. […]

[3] = test system: TEV protease / N-end rule degradation; test: Western blot of N-degron-tagged proteins after GEV-mediated induction of TEV; conditions: 1 μM β-estradiol, YPD; for half-life of NDeg-tagged protein: power-law fit of 10, 20 and 40-minute timepoints
Experimental: Total protein was extracted from ˜10 mL aliquots of cultures at ˜2×10^7 cells/mL using YPX extraction kit (Protein Discovery, Knoxville, Tenn.) with the addition of protease inhibitors (Roche tablets, cat#11836170001). Proteins were separated using Invitrogen NuPage precast 10% Bis-Tris gels and transferred to Invitrolon PVDF (Invitrogen cat#LC2005) according to the manufacturer's protocols. Primary antibody for the β-Myc epitope was mouse anti-human c-Myc from BD Pharmingen (cat#51-1485GR). Secondary antibody was goat anti-mouse-HRP (cat#115-035-003) from Jackson ImmunoResearch. Primary antibody dilution was typically 1/1000 and secondary antibodies were used at 1/10,000 dilution. Immunoreactive peptides were detected by incubation with ECL^+ detection reagent (Amersham/GE RPN2132) and imaging on HyBlot CL autoradiography film (Denville Scientific, Metuchen, N.J.). As a loading control, blots were probed with mouse monoclonal anti-β-Actin antibody loading control cat#ab8224, Abcam, Cambridge, Mass. ( 1/600 or 1/2000). Secondary antibody was as above, goat anti-mouse-HRP. Protein levels were quantified with the “Gel Analysis” feature in ImageJ and normalized to the t=0 levels in each time course.
MET4 and MET31 genes were chosen for use in a proof of principle experiment to exemplify the protein depletion method (FIG. 8). We constructed Ndeg-modified MET4 and MET31 alleles in separate strains containing GEV and PGAL1-TEV (see Materials and Methods). Cells were grown in rich medium (YPD) and treated with 1 μMβ-estradiol at ˜2×10^7 cells/mL. Western blots were performed on proteins extracted at several time points after induction (FIG. 9). Treatment of cultures with 1 μM β-estradiol had no effect on levels of Met4p-13Myc or Met31p-13Myc lacking NDeg (FIG. 9A, 9B).

[4] = two hours following saturating (1 μM) β-estradiol addition

C[C@]12CC[C@@H]3c4ccc(O)cc4CC[C@H]3[C@@H]1CC[C@@H]2O [β-estradiol]
effect on growth of GEV-containing cells (DBY12021 [1]; 10 nM β-estradiol): no longer show the growth defect
effect on growth of GEV-containing cells (DBY12021 [1]; high concentrations of β-estradiol): slowing of growth
β-estradiol toxicity, growth of a strain lacking the GEV system (DBY12021 [1]; strain lacking the GEV system): slow growth does not occur
CBF1 transcript level, share of maximal value (PGAL1-CBF1): ~70%
share of the entire genome affected by GEV-mediated activation (DBY12021 [2]; 3-hour time course, K-means clustering of time course data): less than 2%
share of all S. cerevisiae genes changed 2-fold (DBY12021 [2]; two hours following 1 μM β-estradiol): about 3%
number of genes that decrease 2-fold (DBY12021 [2]; [4]): 105 genes
number of genes that increase 2-fold (DBY12021 [2]; [4]): 94 genes
concentration at which the initial rate of localization achieved its maximum (GEV-GFP): ≥ 1 µM

B1: NDeg-Met4p-13Myc: N-degron-tagged, 13Myc-tagged Met4p target protein (DBY12055) (protein, UniProt P32389 1-672, looked up)
Transcriptional activator of …: MKQEQSHEGDSYSTEFINLFGKDTATHPSSNNGANNNGMGSTNSLDQFVATASSSSSLVTSSENRRPLIGDVTNRGNTNLYDHAVTPEILLEQLAYVDNFIPSLDNEFSNVDWNVNTTHNNANNNGADTFSSINANPFDLDEQLAIELSAFADDSFIFPDEDKPSNNNNNSNNGNDDHSNHDVLHEDPSTNNRQRNPHFLTQRRNTFLTSQYDQSKSRFSSKNKRNGNNGETNNFGDNMQNNHPFEPNFMGSPSQFPADATNMTSIDHGGFTNVDITSTENNTTGDNGVDALSNLLHRTTHTPNRSSPLSNVTSAQNSSSQQRKHSESKVDSNSDNNSSNKAPNITVPDYSIIPTSVLVTLLPRVNVPNGAYNSLISAGFDNDQIDAIAAIMAYHHQKKIRENNSNNNKNINTNDSQEAPILKNINELLSVLIPPSPAETRGPTTLSTSPSFNEHGVVAEASFLSSILELGIKHPKSNNIHNQRQPSRNDHKISRESDGNNGNDNVHHNNAVIKSSTTRGDEIAKIRSEPTLNASSSDHKENSLKRSHSGDLKNKKVPVDRKYSDNEDDEYDDADLHGFEKKQLIKKELGDDDEDLLIQSKKSHQKKKLKEKELESSIHELTEIAASLQKRIHTLETENKLLKNLVLSSGETEGIKKAESLKKQIFEKVQKE
modifications: N-degron tag; 13Myc tag
half-life of NDeg-tagged protein [3]: 16 min

B2: Met4p-13Myc: 13Myc-tagged Met4p lacking NDeg (DBY11440), control protein (protein, UniProt P32389 1-672, looked up)
Transcriptional activator of …: MKQEQSHEGDSYSTEFINLFGKDTATHPSSNNGANNNGMGSTNSLDQFVATASSSSSLVTSSENRRPLIGDVTNRGNTNLYDHAVTPEILLEQLAYVDNFIPSLDNEFSNVDWNVNTTHNNANNNGADTFSSINANPFDLDEQLAIELSAFADDSFIFPDEDKPSNNNNNSNNGNDDHSNHDVLHEDPSTNNRQRNPHFLTQRRNTFLTSQYDQSKSRFSSKNKRNGNNGETNNFGDNMQNNHPFEPNFMGSPSQFPADATNMTSIDHGGFTNVDITSTENNTTGDNGVDALSNLLHRTTHTPNRSSPLSNVTSAQNSSSQQRKHSESKVDSNSDNNSSNKAPNITVPDYSIIPTSVLVTLLPRVNVPNGAYNSLISAGFDNDQIDAIAAIMAYHHQKKIRENNSNNNKNINTNDSQEAPILKNINELLSVLIPPSPAETRGPTTLSTSPSFNEHGVVAEASFLSSILELGIKHPKSNNIHNQRQPSRNDHKISRESDGNNGNDNVHHNNAVIKSSTTRGDEIAKIRSEPTLNASSSDHKENSLKRSHSGDLKNKKVPVDRKYSDNEDDEYDDADLHGFEKKQLIKKELGDDDEDLLIQSKKSHQKKKLKEKELESSIHELTEIAASLQKRIHTLETENKLLKNLVLSSGETEGIKKAESLKKQIFEKVQKE
modifications: 13Myc tag
notes: 13Myc-tagged Met4p lacking NDeg (DBY11440), control protein
effect of β-estradiol treatment on levels of protein lacking NDeg [3]: no effect

B3: NDeg-Met31p-13Myc: N-degron-tagged, 13Myc-tagged Met31p target protein (DBY12234) (protein, UniProt Q03081 1-177, looked up)
Transcriptional regulator …: MKLAQDMNVDEIFLKQAAEAIAVISSSPTHTDPIIRELLHRIRQSSPLSAVIPAPENVLKAGEPENMARGLIRIPETQTKRTGGNNHSKEGAQLYSCAKCQLKFSRSSDLRRHEKVHSLVLPHICSNCGKGFARKDALKRHSNTLTCQRNRKKLSEGSDVDVDELIKDAIKNGTGLL
modifications: N-degron tag, 13Myc tag
half-life of NDeg-tagged protein [3]: 13.75 min

B4: Met31p-13Myc: 13Myc-tagged Met31p lacking NDeg (DBY12235), control protein (protein, UniProt Q03081 1-177, looked up)
Transcriptional regulator …: MKLAQDMNVDEIFLKQAAEAIAVISSSPTHTDPIIRELLHRIRQSSPLSAVIPAPENVLKAGEPENMARGLIRIPETQTKRTGGNNHSKEGAQLYSCAKCQLKFSRSSDLRRHEKVHSLVLPHICSNCGKGFARKDALKRHSNTLTCQRNRKKLSEGSDVDVDELIKDAIKNGTGLL
modifications: C-terminal 13Myc tag
notes: 13Myc-tagged Met31p lacking NDeg (DBY12235), control protein
effect of β-estradiol treatment on levels of protein lacking NDeg [3]: no effect
